Read-outs that look alike come from different tables or passages of the source.
System: PC-12 cells
Conditions: incubation 15 min
Experimental: Cell suspensions were prepared as follows: PC-12 cells (ATCC; passage 5; 75% confluency) were harvested from a T-75 flask using Trypsin-EDTA for 2 minutes. The cells were placed in a 15 mL polyethylene conical (VWR) and centrifuged in F-12k media without serum for 4 minutes at 500 rpm. The cells were counted using a hemocytometer, centrifuged for 4 minutes at 500 rpm, and resuspended at 600,000 cells/mL in sterile PBS.
In order to determine the effect of individual components of the matrix forming compositions on cell viability, solutions A-G were independently mixed with PC-12 cells. 50 uL of cell suspension was added to 350 uL of solutions A-G (Table 4). After a 15 minute incubation, cell viability was assessed using a Live/Dead™ Viability/Cytotoxicity Kit (cat. # L3224; Molecular Probes, Eugene, Oreg.).
The effect of a formed matrix on cell viability was also tested. To form the PD-A matrix, solution #1 (200 mg PD-A, 10 uL TEMED, 20 uL 1N HCl, 470 uL PBS) was added in the amount of 200 uL to a 1.6 ml eppendorf (VWR). Solution #2 (400 mg PD-A, 10 mg Potassium persulfate, 75K PC-12 cells, 500 uL PBS ) was added in the amount of 200 uL to solution #1 in the eppendorf and mixed for 10 seconds. After a 15 minute incubation, cell viability was assessed using the Live/Dead™ Viability/Cytotoxicity Kit.

N.N.O=S(=O)(O)OOS(=O)(=O)O [Ammonium persulfate]
Cell viability (%) (10 mg/ml in PBS): 90%
Cell viability (%) (120 mg/ml in PBS): 90%

O=S(=O)([O-])OOS(=O)(=O)[O-].[K+].[K+] [Potassium persulfate]
Cell viability (%) (10 mg/ml in PBS): 90%

O=S(=O)([O-])OOS(=O)(=O)[O-].[Na+].[Na+] [Sodium persulfate]
Cell viability (%) (5 mg/ml in PBS): 90%

CN(C)CCN(C)C [TEMED/PBS, N,N,N′,N′-Tetramethylethylenediamine]
Cell viability (%) (0.2% (V/V) in PBS): 10-30%

From patent publication US20070065484A1, “In situ occlusion using natural biodegradable polysaccharides” (priority 2005, published 2007)
